The values below come from US20260265194A1, “COMPOUNDS FOR THE TREATMENT OF HIV” (THE TRUSTEES OF THE UNIVERSITY OF PENNSYLVANIA, priority 2022, published 2026).

Each structure is given as a SMILES string.

One assay concerns HIVJR-FL-infected cells. Put plainly: ADCC killing of HIVJR-FL-infected cells. In kind it is cell-based, HIV-1. The text has this:
(§1) The ability of the compounds of the disclosure to enhance Ab recognition of Env on the surface of infected cells and mediate ADCC was examined. Via HIV+ plasma binding, it was observed that CJF-III-192 was able to enhance Ab recognition to a greater degree than BNM-III-170 (7-fold vs 2-fold enhancement vs DMSO) for JR-FL infected primary T-cells. Additionally, when comparing the % ADCC activity of these two compounds, it was observed that CJF-III-192 could achieve up to 8% killing of HIVJR-FL-infected cells, while BNM-III-170 could only attain levels up to 5%. This effect on ADCC activity was more pronounced with HIVCH58TF-infected cells; 18% killing for CJF-III-192 vs. 8% killing with […].

For assay [1], the system named is Env on JR-FL infected primary T-cells. The assay can be described thus: HIV+ plasma binding (Ab recognition of Env on infected cells). The assay is classed as cell-based, HIV-1.
Description: as §1

For assay [2], the system named is mutant HIV-1AD8 batches 130_3 and 130_C. The assay can be described thus: Entry inhibition of CD4mc resistant AD8 variants. The assay is classed as cell-based. The conditions noted are these: up to 300 μM. The procedure: CD4mc resistant variants of Clade B virus AD8 were also selected by incubating infected host cells with increasing concentrations of BNM-III-170. […] These resistant strains of AD8 were sequenced to find specific mutations in the gp120 monomer that conferred the greatest resistance to BNM-III-170. Of these mutations examined, E64G, S375N, and I424T conferred the greatest resistance to treatment with compounds of the disclosure.
Each of the mutations individually were able to increase resistance to BNM-III-170, but were most resistant when combined as in HIV-1AD8 isolates 130_3 and 130_C. […] This was true with the individual mutations discussed above, as well as the original resistant mutants 130_3 and 130_C.

The next assay has as its system HIVCH58TF-infected cells. The assay can be described thus: ADCC killing of HIVCH58TF-infected cells. The assay is classed as cell-based, HIV-1.
Description: as §1

The test system of another assay is HIV-1 JR-FL. The assay can be described thus: Single-round pseudovirus infection inhibition (luciferase), JR-FL Env. The assay is classed as cell-based. To be noted: Cf2Th target cells expressing CD4 and CCR5. The procedure: (§2) Cell lines. 293T cells were grown in Dulbecco's modified Eagle's medium (DMEM) (Life Technologies, Wisent Inc.) supplemented with 10% fetal bovine serum (FBS) (Life Technologies, VWR) and 100 µg/ml of penicillin-streptomycin (Life Technologies, Wisent Inc.). Cf2Th cells stably expressing the human CD4 and CCR5 coreceptors for HIV-1 were grown in the same medium supplemented with 0.4 mg/ml of G418 and 0.2 mg/ml of hygromycin.
(§3) CD4-mimetic compound. The compounds of the disclosure (CD4mc) were dissolved in dimethyl sulfoxide (DMSO) at a stock concentration of 10 mM and diluted to the appropriate concentration for antiviral assays.
(§4) Production of recombinant pseudoviruses expressing luciferase. 293T cells were transfected with pSVIIIenv plasmids expressing Env from HIV-1 strain variants, the pCMVΔP1Δenv HIV-1 Gag-Pol packaging construct and the firefly luciferase-expressing HIV-1 vector at a 1:1:3 μg DNA ratio using effectene transfection reagent (Qiagen). […]
(§5) Virus infectivity and inhibition. […] Forty-eight h later, the target cells were lysed and the luciferase activity was measured.
(§6) For inhibition assays, the compounds to be tested were incubated at various concentrations with recombinant pseudoviruses for 1 h at 37° C. […] Forty-eight hours later, the target cells were lysed and the luciferase activity was measured. […]

A further assay concerns BG505, cladeA HIV-1. Put plainly: Single-round pseudovirus infection inhibition (luciferase), BG505 Env. In kind it is cell-based. To be noted: Cf2Th target cells expressing CD4 and CCR5. As for the experimental part:
as §2, §3, §4, §5, §6

The next assay relates to HIV-1 AD8. The assay can be described thus: Single-round pseudovirus infection inhibition (luciferase), AD8 Env. To be noted: Cf2Th target cells expressing CD4 and CCR5. The assay is classed as cell-based. As for the experimental part: as §2, §3, §4, §5, §6

Usually IC50 stands for the point on the concentration scale where inhibition reaches its midpoint. A lower IC50 goes with inhibition by little substance. In the case of `CNCc1ccc2c(c1)C[C@H](CN=C(N)N)[C@H]2NC(=O)C(=O)Nc1ccc(Cl)c(F)c1.O=C(O)C(F)(F)F.O=C(O)C(F)(F)F` [BNM-III-170], the “% ADCC activity (killing)” value in the assay with HIVJR-FL-infected cells was “up to 5%”; with HIVCH58TF-infected cells it was 8%. Also, the “enhancement of Ab recognition vs DMSO” value in assay [1] was 2 fold. In assay [2], the “entry inhibition of resistant mutants” value is recorded as “completely resistant”. The IC50 in the assay with HIV-1 JR-FL was 12.2 µM; in the assay with BG505, cladeA HIV-1, > 300 µM; in the assay on HIV-1 AD8 it was 1.7 µM.
